US10730825B2, “Methods for the treatment of diabetic retinopathy and other ophthalmic diseases” (Acucela Inc., priority 2012, dated 2020)
Each block holds one compound with its values, some of them ahead of it.

What was measured:
[1] = test system: VEGF; assay: VEGF up-regulation caused by hypoxic conditions; assay type: in vivo; details: for VEGF mRNA levels: compared to vehicle control
Description: FIG. 8 depicts a protocol used to test if ACU-4935 reduced VEGF up-regulation caused by hypoxic conditions. Briefly, animals were adapted for dark for 16 hours, then dosed with ACU-4935. Animals were photobleached for 10 minutes with 50000 Lux 2 hours after being dosed, followed by a 2 hour recovery in the dark. Hypoxia was induced with 6% O2 for 6 hours. A portion of the animals were euthanized and samples were collected at time 0. Another portion of the animals were returned to the dark for 2 more hours prior to being euthanized and sample collection.
Samples were tested for VEGF protein (FIG. 9) and mRNA expression (FIG. 10).

[2] = target: T1, visual cycle isomerase (Homo sapiens, UniProt Q16518); assay: in vitro isomerase activity; assay type: biochemical
T1 sequence (Q16518 1-533): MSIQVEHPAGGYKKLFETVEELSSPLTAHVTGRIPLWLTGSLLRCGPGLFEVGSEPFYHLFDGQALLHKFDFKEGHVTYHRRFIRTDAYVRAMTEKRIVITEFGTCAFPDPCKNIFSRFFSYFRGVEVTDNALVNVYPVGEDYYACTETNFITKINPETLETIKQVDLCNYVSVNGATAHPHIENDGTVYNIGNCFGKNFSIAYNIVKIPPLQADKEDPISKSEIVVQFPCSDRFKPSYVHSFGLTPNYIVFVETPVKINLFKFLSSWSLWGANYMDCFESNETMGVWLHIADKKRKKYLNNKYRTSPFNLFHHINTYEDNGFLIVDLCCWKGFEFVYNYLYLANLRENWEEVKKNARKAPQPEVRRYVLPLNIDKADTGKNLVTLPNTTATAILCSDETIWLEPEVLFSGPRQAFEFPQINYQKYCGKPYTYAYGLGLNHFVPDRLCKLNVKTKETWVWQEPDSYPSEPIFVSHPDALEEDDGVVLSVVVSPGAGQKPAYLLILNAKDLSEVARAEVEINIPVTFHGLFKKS

[3] = target: T2, visual cycle isomerase (Mus musculus, UniProt Q91ZQ5); assay: in vivo isomerase assay single dose, mice
T2 sequence (Q91ZQ5 1-533): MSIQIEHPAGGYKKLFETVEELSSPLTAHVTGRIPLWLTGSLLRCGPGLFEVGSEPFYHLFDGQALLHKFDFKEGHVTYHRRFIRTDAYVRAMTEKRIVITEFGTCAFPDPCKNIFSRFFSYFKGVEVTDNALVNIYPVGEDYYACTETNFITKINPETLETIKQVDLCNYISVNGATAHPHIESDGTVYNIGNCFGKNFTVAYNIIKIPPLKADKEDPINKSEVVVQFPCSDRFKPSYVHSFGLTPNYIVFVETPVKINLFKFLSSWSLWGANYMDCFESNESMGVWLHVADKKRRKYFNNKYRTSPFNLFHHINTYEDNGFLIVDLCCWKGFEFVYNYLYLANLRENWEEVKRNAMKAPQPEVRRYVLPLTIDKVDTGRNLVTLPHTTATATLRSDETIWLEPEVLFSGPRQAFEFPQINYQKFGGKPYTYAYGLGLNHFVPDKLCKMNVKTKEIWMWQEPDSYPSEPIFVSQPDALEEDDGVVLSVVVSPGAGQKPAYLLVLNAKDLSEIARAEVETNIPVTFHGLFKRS

[4] = test system: retinal neovascularization; assay: Retinal neovascularization in mouse model of oxygen-induced retinopathy (OIR); details: OIR mice; for Retinal neovascular area reduced: 4 days
Description: Pups were euthanized on P17, when neovascularization was maximal and eyes were removed for analysis.
Areas of retinal neovascularization were visualized with isoelectin staining of flatmount preparations and quantified with the lasso tool in Adobe Photoshop; total area of neovascularization indicated the sum of individual areas across the retina, and % neovascularization was relative to the total area of the retina^4.
Statistical analyses were performed using GraphPad Prism software.

[5] = test system: retinal cationic activity (Mn2+ uptake); assay: Manganese-enhanced MRI (MEMRI) single dose study; details: rats, Mn2+ uptake by MRI
Description: Rats are to be maintained in regular laboratory lighting (12 hours light, 12 hours dark) prior to start of experimental period—light exposure, bleaching, dark adaption will vary by cohort (see below).
Animals are to be dosed by oral gavage according to group assignment below. Rats are to be weighed each week of the experimental period.
Dilate pupils by applying 1 drop of tropicamide (0.5%) 10-30 minutes before photobleaching. Photobleach animals for 10 minutes by exposure to 5000 lux 4 hours before MRI imaging.
Inject rats immediately after bleach, 4 hours prior to the start of imaging session. MEMRI signal reflects state of expression of activity-dependent channels during experimental period.
Keep rats in dark (IOP room) during the 4 hours between injection and transport to the imaging center for practice experiments for all groups except group 4. Keep animals from group 4 exposed to light during 4 hours between MnCl2 injection and MRI imaging. Otherwise follow light-dark-bleaching cycle described for each cohort.
A snapshot FLASH inversion recovery (IR) imaging sequence is used to acquire a single imaging slice bisecting the retina in the axial and sagittal planes, using a 12 mm inner diameter linear surface coil. […] The approximate scan time per animal is ˜16 minutes. […]

- IC50 [2]: 5.2 nM
- ED50 [3]: 0.4 µg/kg
Structure (SMILES): CCCC(CCC)COc1cccc([C@H](O)CCN)c1 [ACU-4935, (R)-3-amino-1-(3-(2-propylpentyloxy)phenyl)propan-1-ol]
- VEGF mRNA levels ([1]; 2 hours post-hypoxia): slightly increased
- VEGF protein expression ([1]; after 6% O2 for 6 hours, vs vehicle): Slight differences
- VEGF mRNA levels ([1]; time 0 after hypoxia): decreased
- Retinal neovascular area reduced ([4]; 0.3 mg/kg/day intraperitoneal, vs vehicle): 23%
- Retinal neovascular area compared to treatment with vehicle [4]: significantly reduced

Structure (SMILES): CC(=O)NCC=C(C)C=CC=C(C)C=CC1=C(C)CCCC1(C)C [Retinyl acetamide]
- Retinal behaviour after bleach and dark adaptation (expectation) [5]: behave as if they were light adapted

Structure (SMILES): CN(C)C[C@@H]1CCn2cc(c3ccccc32)C2=C(C(=O)NC2=O)c2cn(c3ccccc23)CCO1 [Ruboxistaurin, reference compound]
- Retinal neovascular area reduced ([4]; 10 mg/kg/day intraperitoneal, positive control): 29%
